20 molecules from patent US7135462B2, “Hepatitis C virus inhibitors” (priority 2003, dated 2006) can be followed below.

SMILES strings stand for the structures. Read-outs that look alike come from different tables or passages of the source.

In test [1] the target is T1, HCV NS3/4A protease complex (BMS strain) (UniProt P27958, C1454S/C1711G, species not given).
T1 construct: for H77 and J4L6S; fused on or other part: Three-lysine solubilising tail at the C-terminus of NS4A
Description: Recombinant HCV NS3/4A protease complex FRET peptide assay. The note with it: NS3/4A BMS strain, activity range class. In kind it is biochemical, Hepatitis C virus (HCV), genotype 1a. From the text:
Recombinant HCV NS3/4A Protease Complex FRET Peptide Assay
Serum from an HCV-infected patient was obtained from Dr. T. Wright, San Francisco Hospital. An engineered full-length cDNA (compliment deoxyribonucleic acid) template of the HCV genome (BMS strain) was constructed from DNA fragments obtained by reverse transcription-PCR (RT-PCR) of serum RNA (ribonucleic acid) and using primers selected on the basis of homology between other genotype 1a strains.
The H77 and J4L6S strains were used for production of recombinant NS3/4A protease complexes. […] Briefly, a three-lysine solubilizing tail was added at the 3′-end of the NS4A coding region. […] Briefly, the NS3/4A protease complex expression was induced with 0.5 millimolar (mM) Isopropyl β-D-1-thiogalactopyranoside (IPTG) for 22 hours (h) at 20° C. […] The cells were resuspended in lysis buffer (10 mL/g) consisting of 25 mM N-(2-Hydroxyethyl)piperazine-N′-(2-Ethane Sulfonic acid) (HEPES), pH 7.5, 20% glycerol, 500 mM Sodium Chloride (NaCl), 0.5% Triton X-100, 1 microgram/milliliter (“μg/mL”) lysozyme, 5 mM Magnesium Chloride (MgCl2), 1 μg/ml DnaseI, 5 mM β-Mercaptoethanol (βME), Protease inhibitor—Ethylenediamine Tetraacetic acid (EDTA) free (Roche), homogenized and incubated for 20 minutes (min) at 4° C. The homogenate was sonicated and clarified by ultra-centrifugation at 235000 g for 1 h at 4° C. Imidazole was added to the supernatant to a final concentration of 15 mM and the pH adjusted to 8.0. The crude protein extract was loaded on a Nickel—Nitrilotriacetic acid (Ni-NTA) column pre-equilibrated with buffer B (25 mM HEPES, pH 8.0, 20% glycerol, 500 mM NaCl, 0.5% Triton X-100, 15 mM imidazole, 5 mM βME). The sample was loaded at a flow rate of 1 mL/min. The column was washed with 15 column volumes of buffer C (same as buffer B except with 0.2% Triton X-100). The protein was eluted with 5 column volumes of buffer D (same as buffer C except with 200 mM Imidazole).
NS3/4A protease complex-containing fractions were pooled and loaded on a desalting column Superdex-S200 pre-equilibrated with buffer D (25 mM HEPES, pH 7.5, 20% glycerol, 300 mM NaCl, 0.2% Triton X-100, 10 mM βME). Sample was loaded at a flow rate of 1 mL/min. NS3/4A protease complex-containing fractions were pooled and concentrated to approximately 0.5 mg/ml.
The enzyme was stored at −80° C., thawed on ice and diluted prior to use in assay buffer. […] The sequence of this peptide is loosely based on the NS4A/NS4B natural cleavage site for the HCV NS3 protease except there is an ester linkage rather than an amide bond at the cleavage site. The peptide substrate was incubated with one of the three recombinant NS3/4A protease complexes, in the absence or presence of a compound of the present invention, and the formation of fluorescent reaction product was followed in real time using a Cytofluor Series 4000.
The reagents were as follow: HEPES and Glycerol (Ultrapure) were obtained from GIBCO-BRL. Dimethyl Sulfoxide (DMSO) was obtained from Sigma. β-Mercaptoethanol was obtained from Bio Rad.
Assay buffer: 50 mM HEPES, pH 7.5; 0.15 M NaCl; 0.1% Triton; 15% Glycerol; 10 mM βME. Substrate: 2 μM final concentration (from a 2 mM stock solution in DMSO stored at −20° C.). HCV NS3/4A protease type 1a (1b), 2–3 nM final concentration (from a 5 μM stock solution in 25 mM HEPES, pH 7.5, 20% glycerol, 300 mM NaCl, 0.2% Triton-X100, 10 mM βME).
The assay was performed in a 96-well polystyrene black plate from Falcon.

Test [2] has as its system HCV replicon in Huh7 cells. Description: microbe, parasite or virus in culture. In kind it is cell-based, strain 1b. The settings on record: Hepatitis C virus, Huh-7, 96 h; Huh7 cells expressing HCV replicon, 4 days; activity range class. The text has this: Generation of HCV Replicon
This system enabled us to evaluate the effects of our HCV Protease compounds on HCV RNA replication. Briefly, using the HCV strain 1b sequence described in the Lohmann paper (Assession number: AJ238799), an HCV cDNA was generated encoding the 5′ internal ribosome entry site (IRES), the neomycin resistance gene, the EMCV (encephalomyocarditis viurs)-IRES and the HCV nonstructural proteins, NS3-NS5B, and 3′ non-translated region (NTR). In vitro transcripts of the cDNA were transfected into the human hepatoma cell line, Huh7. […] Resulting cell lines were characterized for positive and negative strand RNA production and protein production over time.
Huh7 cells, constitutively expressing the HCV replicon, were grown in Dulbecco's Modified Eagle Media (DMEM) containing 10% Fetal calf serum (FCS) and 1 mg/ml G418 (Gibco-BRL). Cells were seeded the night before (1.5×10^4 cells/well) in 96-well tissue-culture sterile plates. Compound and no compound controls were prepared in DMEM containing 4% FCS, 1:100 Penicillin/Streptomysin, 1:100 L-glutamine and 5% DMSO in the dilution plate (0.5% DMSO final concentration in the assay). Compound/DMSO mixes were added to the cells and incubated for 4 days at 37° C. After 4 days, plates were rinsed thoroughly with Phosphate-Buffered Saline (PBS) (3 times 150 μl). The cells were lysed with 25 μl of a lysis assay reagent containing the FRET peptide (RET S1, as described for the in vitro enzyme assay). The lysis assay reagent was made from 5× cell Luciferase cell culture lysis reagent (Promega #E153A) diluted to 1× with distilled water, NaCl added to 150 mM final, the FRET peptide diluted to 10 μM final from a 2 mM stock in 100% DMSO. The plate was then placed into the Cytofluor 4000 instrument which had been set to 340 nm excitation/490 nm emission, automatic mode for 21 cycles and the plate read in a kinetic mode. EC50 determinations were carried out as described for the IC50 determinations. […]
The percentage inhibition was calculated using the formula below: […]
The values were graphed and analyzed using XLFit to obtain the EC50 value.
In general terms: Replicon systems follow genome replication, usually without infectious particles.

In general, IC50 refers to the midpoint of a concentration-inhibition curve. Turning to `C=C[C@@H]1C[C@]1(NC(=O)[C@@H]1C[C@@H](Oc2nccc3ccccc23)CN1C(=O)[C@@H](NC(=O)Oc1ccc(C)cc1)C(C)(C)C)C(=O)NS(=O)(=O)C1(Cc2ccccc2)CC1` [Cmpd 200], the IC50 in test [1] (read-out: IC50) is 1000 to 10000 nM. The same measure, in the same setting: with `C=C[C@@H]1C[C@]1(NC(=O)[C@@H]1C[C@@H](Oc2nccc3ccccc23)CN1C(=O)[C@@H](NC(=O)Oc1ccccc1)C(C)(C)C)C(=O)NS(=O)(=O)C1(Cc2ccccc2)CC1` [Cmpd 201] the figure was 1000 to 10000 nM; with `C=C[C@@H]1C[C@]1(NC(=O)[C@@H]1C[C@@H](Oc2nccc3ccccc23)CN1C(=O)[C@@H](NC(=O)Oc1ccc(F)cc1)C(C)(C)C)C(=O)NS(=O)(=O)C1(Cc2ccccc2)CC1` [Cmpd 202], 1000 to 10000 nM; with `C=C[C@@H]1C[C@]1(NC(=O)[C@@H]1C[C@@H](Oc2nccc3ccccc23)CN1C(=O)[C@@H](NC(=O)Oc1ccc(OC)cc1)C(C)(C)C)C(=O)NS(=O)(=O)C1(Cc2ccccc2)CC1` [Cmpd 203], 1000 to 10000 nM. Turning to `C=C[C@@H]1C[C@]1(NC(=O)[C@@H]1C[C@@H](Oc2nccc3ccccc23)CN1C(=O)[C@@H](NC(=O)OCCOC)C(C)(C)C)C(=O)NS(=O)(=O)C1(Cc2ccccc2)CC1` [Cmpd 204], in test [1] (read-out: IC50), the IC50 was in the range of 1000 to 10000 nM.

For orientation: EC50 means the concentration giving half of the maximal effect. A high value points to weaker potency. For the molecule `C=C[C@@H]1C[C@]1(NC(=O)[C@@H]1C[C@@H](Oc2nccc3ccccc23)CN1C(=O)[C@@H](NC(=O)OCC(C)(C)C)C(C)(C)C)C(=O)NS(=O)(=O)C1(Cc2ccccc2)CC1` [Cmpd 205], the concentration giving a half-maximal response (EC50) in test [2] was 100 to 1000 nM. Further, the IC50 in test [1] (read-out: IC50) was 100 to 1000 nM. In the case of `C=C[C@@H]1C[C@]1(NC(=O)[C@@H]1C[C@@H](Oc2nccc3ccccc23)CN1C(=O)[C@@H](NC(=O)OCCF)C(C)(C)C)C(=O)NS(=O)(=O)C1(Cc2ccccc2)CC1` [Cmpd 206], in test [1] (read-out: IC50), the half-inhibitory concentration (IC50) is 100 to 1000 nM.

Consider `C=C[C@@H]1C[C@]1(NC(=O)[C@@H]1C[C@@H](Oc2nccc3ccccc23)CN1C(=O)[C@@H](NC(=O)Oc1ccccc1OC)C(C)(C)C)C(=O)NS(=O)(=O)C1(Cc2ccccc2)CC1` [Cmpd 207], for which the concentration for half-maximal inhibition (IC50) in test [1] (read-out: IC50) is 1000 to 10000 nM.

Regarding `C=C[C@@H]1C[C@]1(NC(=O)[C@@H]1C[C@@H](Oc2nccc3ccccc23)CN1C(=O)[C@@H](NC(=O)Oc1cccc(C(F)(F)F)c1)C(C)(C)C)C(=O)NS(=O)(=O)C1(Cc2ccccc2)CC1` [Cmpd 208], the IC50 in test [1] (read-out: IC50) lay in the range of 1000 to 10000 nM. `C=C[C@@H]1C[C@]1(NC(=O)[C@@H]1C[C@@H](Oc2nccc3ccccc23)CN1C(=O)[C@@H](NC(=O)O[C@@H]1C[C@H](C)CC[C@H]1C(C)C)C(C)(C)C)C(=O)NS(=O)(=O)C1(Cc2ccccc2)CC1` [Cmpd 209]: the concentration for a half-maximal effect (EC50) in test [2] was 1000 to 10000 nM. Moreover, in test [1] (read-out: IC50), the IC50 is 10000 to 100000 nM. For `C=C[C@@H]1C[C@]1(NC(=O)[C@@H]1C[C@@H](Oc2nccc3ccccc23)CN1C(=O)[C@@H](NC(=O)CC(C)(C)C)C(C)(C)C)C(=O)NS(=O)(=O)C1(Cc2ccccc2)CC1` [Cmpd 210], the IC50 in test [1] (read-out: IC50) is 1000 to 10000 nM. The same measure, in the same setting: with `C=C[C@@H]1C[C@]1(NC(=O)[C@@H]1C[C@@H](Oc2nccc3ccccc23)CN1C(=O)[C@@H](NC(=O)COC)C(C)(C)C)C(=O)NS(=O)(=O)C1(Cc2ccccc2)CC1` [Cmpd 211] the figure was 1000 to 10000 nM; with `C=C[C@@H]1C[C@]1(NC(=O)[C@@H]1C[C@@H](Oc2nccc3ccccc23)CN1C(=O)[C@@H](NC(=O)CCOC)C(C)(C)C)C(=O)NS(=O)(=O)C1(Cc2ccccc2)CC1` [Cmpd 212], 1000 to 10000 nM. Same read-out and setting: with `C=C[C@@H]1C[C@]1(NC(=O)[C@@H]1C[C@@H](Oc2nccc3ccccc23)CN1C(=O)[C@@H](NC(=O)[C@@H]1COc2ccccc2O1)C(C)(C)C)C(=O)NS(=O)(=O)C1(Cc2ccccc2)CC1` [Cmpd 213] the figure was 10000 to 100000 nM.

Consider `C=C[C@@H]1C[C@]1(NC(=O)[C@@H]1C[C@@H](Oc2nccc3cc(OC)ccc23)CN1C(=O)[C@@H](NC(=O)NC(C)(C)C)C(C)(C)C)C(=O)NS(=O)(=O)C1(C)CC1` [Cmpd 217], for which the EC50 in test [2] was < 100 nM. The IC50 in test [1] was < 100 nM. As for `C=C[C@@H]1C[C@]1(NC(=O)[C@@H]1C[C@@H](Oc2nccc3cc(OC)ccc23)CN1C(=O)[C@@H](NC(=O)NC1CCCC1)C(C)(C)C)C(=O)NS(=O)(=O)C1(C)CC1` [Cmpd 218], in test [2], the EC50 is < 100 nM. For the same molecule, the IC50 in test [1] (read-out: IC50) was < 100 nM. On to `C=C[C@@H]1C[C@]1(NC(=O)[C@@H]1C[C@@H](Oc2nccc3cc(OC)ccc23)CN1C(=O)[C@@H](NC(=O)NC(C)(C)CC)C(C)(C)C)C(=O)NS(=O)(=O)C1(C)CC1` [Cmpd 219], for which, in test [2], the 50% effective concentration (EC50) was < 100 nM. In test [1] (read-out: IC50), the 50% inhibitory concentration (IC50) was < 100 nM.

As to `C=C[C@@H]1C[C@]1(NC(=O)[C@@H]1C[C@@H](Oc2nccc3cc(OC)ccc23)CN1C(=O)[C@@H](NC(=O)N1CCC1)C(C)(C)C)C(=O)NS(=O)(=O)C1(C)CC1` [Cmpd 220], the EC50 in test [2] was in the range of 100 to 1000 nM. For the same molecule, the IC50 in test [1] (read-out: IC50) is < 100 nM. On to `C=C[C@@H]1C[C@]1(NC(=O)[C@@H]1C[C@@H](Oc2nccc3cc(OC)ccc23)CN1C(=O)[C@@H](NC(=O)OC(C)(C)C)C(C)(C)C)C(=O)NS(=O)(=O)C1(CC)CC1` [Cmpd 300, {1-[2-[1-(1-Ethyl-cyclopropanesulfonylaminocarbonyl)-2-vinyl-cyclopropylcarbamoyl]-4-(6-methoxy-isoquinolin-1-yloxy)-pyrrolidine-1-carbonyl]-2,2-dimethyl-propyl}-carbamic acid tert-butyl ester], for which the EC50 in test [2] was < 100 nM. For the same molecule, the half-maximal inhibitory concentration (IC50) in test [1] (read-out: IC50) was < 100 nM. In the case of `C=C[C@@H]1C[C@]1(NC(=O)[C@@H]1C[C@@H](Oc2nc(-c3ccccc3)nc3ccccc23)CN1C(=O)[C@@H](N)C(C)(C)C)C(=O)NS(=O)(=O)C1(Cc2ccccc2)CC1` [Cmpd 603], the IC50 in test [1] (read-out: IC50) fell in the range of 1000 to 10000 nM.
